Reference: ChEMBL document CHEMBL3994667, “Small Molecule Lysyl Oxidase-like 2 (LOXL2) Inhibitors: The Identification of an Inhibitor Selective for LOXL2 over LOX” (ACS Med Chem Lett, 2017)
pIC50: −log10 of the molar value. The source made the active and inactive calls. The calls are words filed in the database; no cut-off is given here.

Assays:
[1] = target: T1, Lysyl oxidase homolog 2 (Homo sapiens, UniProt Q9Y4K0); assay: Inhibition of full length recombinant human LOXL2 expressed in CHO cells assessed as reduction in H2O2 production using DAP as substrate preincubated for 2 hrs followed by substrate addition measured every 2 minutes for 50 minutes by Amplex red dye based fluorescence assay
T1 sequence (Q9Y4K0 whole entry): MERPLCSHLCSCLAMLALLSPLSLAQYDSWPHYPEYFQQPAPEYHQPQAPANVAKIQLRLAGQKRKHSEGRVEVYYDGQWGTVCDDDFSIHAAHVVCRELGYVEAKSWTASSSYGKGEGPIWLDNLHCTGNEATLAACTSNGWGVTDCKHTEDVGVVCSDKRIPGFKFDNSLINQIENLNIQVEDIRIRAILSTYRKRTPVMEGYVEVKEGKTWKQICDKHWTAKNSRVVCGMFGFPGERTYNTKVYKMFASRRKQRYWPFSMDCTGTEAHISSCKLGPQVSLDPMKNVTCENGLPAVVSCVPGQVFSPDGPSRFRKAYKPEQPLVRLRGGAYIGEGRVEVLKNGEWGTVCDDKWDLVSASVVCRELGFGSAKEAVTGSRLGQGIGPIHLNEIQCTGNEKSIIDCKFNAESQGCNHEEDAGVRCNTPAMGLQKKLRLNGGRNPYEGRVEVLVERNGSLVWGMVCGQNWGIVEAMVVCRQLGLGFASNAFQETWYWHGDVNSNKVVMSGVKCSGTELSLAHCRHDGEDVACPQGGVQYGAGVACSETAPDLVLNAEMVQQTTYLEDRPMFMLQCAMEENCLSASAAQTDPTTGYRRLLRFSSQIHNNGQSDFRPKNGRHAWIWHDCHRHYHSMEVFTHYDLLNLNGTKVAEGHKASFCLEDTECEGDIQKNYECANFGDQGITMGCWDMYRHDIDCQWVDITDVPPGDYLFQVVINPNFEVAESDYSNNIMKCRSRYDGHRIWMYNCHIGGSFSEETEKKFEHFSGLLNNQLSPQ

[2] = target: T2, Amine oxidase [flavin-containing] A (Homo sapiens, UniProt P21397); assay: Inhibition of recombinant human MAO-A at 30 uM using tyramine as substrate preincubated for 2 hrs followed by substrate addition measured every 30 secs for 10 minutes by Amplex red dye based fluorescence assay
T2 sequence (P21397 whole entry): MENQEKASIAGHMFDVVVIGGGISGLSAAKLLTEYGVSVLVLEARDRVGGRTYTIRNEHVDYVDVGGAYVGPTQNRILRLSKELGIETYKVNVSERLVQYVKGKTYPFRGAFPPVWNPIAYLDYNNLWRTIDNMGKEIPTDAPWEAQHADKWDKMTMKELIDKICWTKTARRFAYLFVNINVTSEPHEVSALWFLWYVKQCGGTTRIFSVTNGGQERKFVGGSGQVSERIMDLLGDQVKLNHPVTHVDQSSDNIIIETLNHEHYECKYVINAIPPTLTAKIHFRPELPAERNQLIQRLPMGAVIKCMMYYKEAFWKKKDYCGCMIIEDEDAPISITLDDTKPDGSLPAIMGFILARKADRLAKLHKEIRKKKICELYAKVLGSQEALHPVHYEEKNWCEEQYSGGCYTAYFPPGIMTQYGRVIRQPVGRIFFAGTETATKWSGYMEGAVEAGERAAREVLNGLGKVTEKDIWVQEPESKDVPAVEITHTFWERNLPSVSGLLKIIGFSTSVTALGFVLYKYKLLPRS

[3] = target: T3, Amine oxidase [flavin-containing] B (Homo sapiens, UniProt P27338); assay: Inhibition of recombinant human MAO-B at 30 uM using benzylamine as substrate preincubated for 2 hrs followed by substrate addition measured every 30 secs for 10 minutes by Amplex red dye based fluorescence assay
T3 sequence (P27338 whole entry): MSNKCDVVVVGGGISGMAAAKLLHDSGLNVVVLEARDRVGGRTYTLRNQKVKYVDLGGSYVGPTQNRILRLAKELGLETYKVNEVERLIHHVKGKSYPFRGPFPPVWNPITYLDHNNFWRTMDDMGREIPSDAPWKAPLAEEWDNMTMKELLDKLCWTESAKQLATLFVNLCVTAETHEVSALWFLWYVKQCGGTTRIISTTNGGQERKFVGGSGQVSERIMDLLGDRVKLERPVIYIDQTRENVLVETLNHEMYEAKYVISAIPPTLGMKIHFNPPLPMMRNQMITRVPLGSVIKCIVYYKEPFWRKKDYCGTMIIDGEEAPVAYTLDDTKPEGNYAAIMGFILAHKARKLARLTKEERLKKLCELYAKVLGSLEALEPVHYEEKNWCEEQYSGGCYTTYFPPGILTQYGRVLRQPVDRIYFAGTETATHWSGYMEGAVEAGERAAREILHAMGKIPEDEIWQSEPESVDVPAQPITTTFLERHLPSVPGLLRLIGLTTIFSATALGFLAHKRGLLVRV

[4] = target: T4, Amine oxidase [copper-containing] 3 (Homo sapiens) (UniProt Q16853); assay: Inhibition of SSAO in human plasma at 30 uM using benzylamine as substrate preincubated for 2 hrs followed by substrate addition measured every 30 secs for 15 minutes by Amplex red dye based fluorescence assay
T4 sequence (whole entry): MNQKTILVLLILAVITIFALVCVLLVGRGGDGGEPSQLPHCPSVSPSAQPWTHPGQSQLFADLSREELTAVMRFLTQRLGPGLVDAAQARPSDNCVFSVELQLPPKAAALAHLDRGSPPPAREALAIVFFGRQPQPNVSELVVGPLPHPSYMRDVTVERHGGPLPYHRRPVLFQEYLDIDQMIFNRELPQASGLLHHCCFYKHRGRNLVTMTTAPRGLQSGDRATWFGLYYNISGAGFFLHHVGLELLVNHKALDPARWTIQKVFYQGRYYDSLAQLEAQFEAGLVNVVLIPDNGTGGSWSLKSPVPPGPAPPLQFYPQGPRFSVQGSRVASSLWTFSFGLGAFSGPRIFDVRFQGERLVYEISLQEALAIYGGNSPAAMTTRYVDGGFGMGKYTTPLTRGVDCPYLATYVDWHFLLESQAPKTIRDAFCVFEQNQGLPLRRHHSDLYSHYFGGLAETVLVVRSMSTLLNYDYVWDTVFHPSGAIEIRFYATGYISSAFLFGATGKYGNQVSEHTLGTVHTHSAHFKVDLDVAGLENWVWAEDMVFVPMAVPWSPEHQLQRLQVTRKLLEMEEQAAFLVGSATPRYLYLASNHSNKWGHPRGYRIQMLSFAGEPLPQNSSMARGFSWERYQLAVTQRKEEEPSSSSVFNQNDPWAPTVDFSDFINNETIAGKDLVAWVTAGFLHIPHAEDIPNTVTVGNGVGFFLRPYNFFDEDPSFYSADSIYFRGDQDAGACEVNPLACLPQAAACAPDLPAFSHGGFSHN

NCc1ccnc(Cl)c1
pIC50 [1]: 6.90 | inhibition (INH) [2]: Not Active | inhibition (INH) [3]: Not Active | inhibition [4]: inactive
